This note sets out measurements from US20240228535A1 (priority 2022, published 2024).

For this assay, the target named is SARS2 coronavirus 3CL protease (Severe acute respiratory syndrome coronavirus 2, UniProt P0DTD1). Kind of assay: biochemical. Conditions: 5 nM enzyme, 30 min pre-incubation with compound, 15 μM peptide substrate, 4 h at room temperature; read-out: FRET Potency (nM); IC50 values in the SARS2 3CLPro FRET assay.
For `C[C@@H]1C[C@@H](C[C@H](NC(=O)c2cc(Cl)c(F)cc2NC(=O)CCC(F)(F)F)C(=O)C(=O)NC2CC2)C(=O)N1` [Example 53, 5-chloro-N-[(1S)-3-(cyclopropylamino)-1-[[(3S,5R)-5-methyl-2-oxo-pyrrolidin-3-yl]methyl]-2,3-dioxo-propyl]-4-fluoro-2-(4,4,4-trifluorobutanoylamino) benzamide], the IC50 was found to be 8.3 nM.

With `C[C@@H]1C[C@@H](C[C@H](NC(=O)c2cc(Cl)ccc2NC(=O)C23CC(F)(C2)C3)C(=O)C(=O)NC2CC2)C(=O)N1` [Example 54, N-[4-chloro-2-[[(1S)-3-(cyclopropylamino)-1-[[(3S,5R)-5-methyl-2-oxo-pyrrolidin-3-yl]methyl]-2,3-dioxo-propyl]carbamoyl]phenyl]-3-fluoro-bicyclo[1.1.1]pentane-1-carboxamide], the IC50 worked out at 8.2 nM. As for `CNC(=O)C(=O)[C@H](C[C@@H]1C[C@@H](C)NC1=O)NC(=O)c1cc(Cl)ccc1NC(=O)c1ccc(C(F)(F)F)cn1` [Example 55, N-[4-chloro-2-[[(1S)-3-(methylamino)-1-[[(3S,5R)-5-methyl-2-oxo-pyrrolidin-3-yl]methyl]-2,3-dioxo-propyl]carbamoyl]phenyl]-5-(trifluoromethyl)pyridine-2-carboxamide], the IC50 is 8.2 nM. The result for `O=C(CCC(F)(F)F)Nc1cc(F)c(Cl)cc1C(=O)N[C@@H](C[C@@H]1CCNC1=O)C(=O)C(=O)NC1CC1` [Example 56, 5-chloro-N-[(1S)-3-(cyclopropylamino)-2,3-dioxo-1-[[(3S)-2-oxopyrrolidin-3-yl]methyl]propyl]-4-fluoro-2-(4,4,4-trifluorobutanoylamino) benzamide] reads 8.1 nM. The value for `CNC(=O)C(=O)[C@H](C[C@@H]1C[C@@H](C)NC1=O)NC(=O)c1cc(Cl)cnc1NC(=O)c1ccc(F)cc1` [Example 57, 5-chloro-2-[(4-fluorobenzoyl)amino]-N-[(1S)-3-(methylamino)-1-[[(3S,5R)-5-methyl-2-oxo-pyrrolidin-3-yl]methyl]-2,3-dioxo-propyl]pyridine-3-carboxamide] was 8.1 nM; that for `C[C@@H]1C[C@@H](C[C@H](NC(=O)c2cc(Cl)cnc2NC(=O)c2cccc(F)c2)C(=O)C(=O)NC2CC2)C(=O)N1` [Example 58, 5-chloro-N-[(1S)-3-(cyclopropylamino)-1-[[(3S,5R)-5-methyl-2-oxo-pyrrolidin-3-yl]methyl]-2,3-dioxo-propyl]-2-[(3-fluorobenzoyl)amino] pyridine-3-carboxamide] was 8.1 nM. The result for `C[C@@H]1C[C@@H](C[C@H](NC(=O)c2cc(Cl)ccc2NC(=O)C2CC(F)(F)C2)C(=O)C(=O)NC2CC2)C(=O)N1` [Example 59, 5-chloro-N-[(1S)-3-(cyclopropylamino)-1-[[(3S,5R)-5-methyl-2-oxo-pyrrolidin-3-yl]methyl]-2,3-dioxo-propyl]-2-[(3,3-difluorocyclobutanecarbonyl)amino]benzamide] reads 8 nM. Turning to `C[C@@H]1C[C@@H](C[C@H](NC(=O)c2cc(C#N)ccc2NC(=O)c2cccc(C(F)(F)F)c2)C(=O)C(=O)NC2CC2)C(=O)N1` [Example 61, 5-cyano-N-[(1S)-3-(cyclopropylamino)-1-[[(3S,5R)-5-methyl-2-oxo-pyrrolidin-3-yl]methyl]-2,3-dioxo-propyl]-2-[[3-(trifluoromethyl)benzoyl]amino]benzamide], the IC50 turned out to be 7.7 nM. The value for `C[C@@H]1C[C@@H](C[C@H](NC(=O)c2cc(Cl)ccc2NC(=O)C2(CC(F)(F)F)CC2)C(=O)C(=O)NC2CC2)C(=O)N1` [Example 62] was 7.6 nM; that for `O=C(NC1CC1)C(=O)[C@H](C[C@@H]1CCNC1=O)NC(=O)c1cc(Cl)ccc1NC(=O)C1CC(F)(F)C1` [Example 63, 5-chloro-N-[(1S)-3-(cyclopropylamino)-2,3-dioxo-1-[[(3S)-2-oxopyrrolidin-3-yl]methyl]propyl]-2-[(3,3-difluorocyclobutanecarbonyl)amino]benzamide] was 7.3 nM.
